# Source: ChEMBL document CHEMBL1759842, “Discovery of non-glucoside SGLT2 inhibitors” (Bioorg Med Chem Lett, 2011)
# How the values were obtained:
# [1] = target: T1, Sodium/glucose cotransporter 2 (Homo sapiens, UniProt P31639); assay: Inhibition of human SGLT2 expressed in CHO cells assessed as inhibition of [14C]-alpha-methyl-D-glucopyranoside transport after 60 mins by scintillation counting; assay type: cell-based
# T1 sequence (P31639 whole entry): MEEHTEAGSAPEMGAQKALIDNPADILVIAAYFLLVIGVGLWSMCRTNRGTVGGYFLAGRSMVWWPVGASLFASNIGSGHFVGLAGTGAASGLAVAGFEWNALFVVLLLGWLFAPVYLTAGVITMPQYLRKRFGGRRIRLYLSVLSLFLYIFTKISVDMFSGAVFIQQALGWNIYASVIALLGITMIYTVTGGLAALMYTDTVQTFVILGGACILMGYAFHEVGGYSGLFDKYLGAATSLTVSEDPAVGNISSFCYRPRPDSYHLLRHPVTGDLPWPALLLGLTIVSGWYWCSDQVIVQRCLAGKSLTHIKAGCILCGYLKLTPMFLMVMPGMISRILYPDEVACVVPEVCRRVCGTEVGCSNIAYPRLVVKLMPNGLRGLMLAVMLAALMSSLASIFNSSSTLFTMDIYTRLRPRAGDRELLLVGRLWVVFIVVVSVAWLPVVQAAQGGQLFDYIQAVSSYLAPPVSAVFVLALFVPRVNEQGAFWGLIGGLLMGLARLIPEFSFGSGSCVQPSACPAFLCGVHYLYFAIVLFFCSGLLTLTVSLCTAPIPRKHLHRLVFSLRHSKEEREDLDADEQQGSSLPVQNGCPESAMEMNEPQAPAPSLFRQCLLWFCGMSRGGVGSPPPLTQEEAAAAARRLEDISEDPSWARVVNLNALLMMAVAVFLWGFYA
# [2] = target: T2, Sodium/glucose cotransporter 1 (Homo sapiens, UniProt P13866); assay: Inhibition of human SGLT1 expressed in CHO cells assessed as inhibition of [14C]-alpha-methyl-D-glucopyranoside transport after 60 mins by scintillation counting; assay type: cell-based
# T2 sequence (P13866 whole entry): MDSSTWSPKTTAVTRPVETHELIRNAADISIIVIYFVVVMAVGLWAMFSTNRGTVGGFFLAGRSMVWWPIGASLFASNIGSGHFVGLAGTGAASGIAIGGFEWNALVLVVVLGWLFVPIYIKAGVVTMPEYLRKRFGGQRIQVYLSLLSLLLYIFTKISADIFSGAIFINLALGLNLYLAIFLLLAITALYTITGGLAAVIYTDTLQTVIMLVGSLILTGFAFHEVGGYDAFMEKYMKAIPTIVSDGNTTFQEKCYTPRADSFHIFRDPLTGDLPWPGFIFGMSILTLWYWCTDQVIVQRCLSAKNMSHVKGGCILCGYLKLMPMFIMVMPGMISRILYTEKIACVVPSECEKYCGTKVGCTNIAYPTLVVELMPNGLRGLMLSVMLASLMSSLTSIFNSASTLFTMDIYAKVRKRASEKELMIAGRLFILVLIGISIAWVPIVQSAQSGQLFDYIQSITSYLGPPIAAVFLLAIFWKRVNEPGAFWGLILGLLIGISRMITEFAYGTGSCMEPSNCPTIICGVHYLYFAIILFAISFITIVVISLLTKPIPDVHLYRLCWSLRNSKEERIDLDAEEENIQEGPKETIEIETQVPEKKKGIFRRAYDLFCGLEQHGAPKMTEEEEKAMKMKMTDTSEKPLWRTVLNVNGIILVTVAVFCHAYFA
# [3] = target: T1, Sodium/glucose cotransporter 2; assay: Displacement of [3H]dapagliflozin from human SGLT2 expressed in CHO cells after 60 mins by scintillation counting; assay type: cell-based
# [4] = Metabolic stability in rat liver microsomes assessed as compound remaining after 30 mins; assay type: ADME, Microsome; settings: read-out: Stability
# [5] = Metabolic stability in human liver microsomes assessed as compound remaining after 30 mins; assay type: ADME, Microsome; settings: read-out: Stability
# [6] = target: T3, Sodium/myo-inositol cotransporter 2 (Homo sapiens, UniProt Q8WWX8); assay: Inhibition of SGLT6 expressed in CHO cells assessed as inhibition of [14C]-alpha-methyl-D-glucopyranoside transport after 60 mins by scintillation counting; assay type: cell-based
# T3 sequence (Q8WWX8 whole entry): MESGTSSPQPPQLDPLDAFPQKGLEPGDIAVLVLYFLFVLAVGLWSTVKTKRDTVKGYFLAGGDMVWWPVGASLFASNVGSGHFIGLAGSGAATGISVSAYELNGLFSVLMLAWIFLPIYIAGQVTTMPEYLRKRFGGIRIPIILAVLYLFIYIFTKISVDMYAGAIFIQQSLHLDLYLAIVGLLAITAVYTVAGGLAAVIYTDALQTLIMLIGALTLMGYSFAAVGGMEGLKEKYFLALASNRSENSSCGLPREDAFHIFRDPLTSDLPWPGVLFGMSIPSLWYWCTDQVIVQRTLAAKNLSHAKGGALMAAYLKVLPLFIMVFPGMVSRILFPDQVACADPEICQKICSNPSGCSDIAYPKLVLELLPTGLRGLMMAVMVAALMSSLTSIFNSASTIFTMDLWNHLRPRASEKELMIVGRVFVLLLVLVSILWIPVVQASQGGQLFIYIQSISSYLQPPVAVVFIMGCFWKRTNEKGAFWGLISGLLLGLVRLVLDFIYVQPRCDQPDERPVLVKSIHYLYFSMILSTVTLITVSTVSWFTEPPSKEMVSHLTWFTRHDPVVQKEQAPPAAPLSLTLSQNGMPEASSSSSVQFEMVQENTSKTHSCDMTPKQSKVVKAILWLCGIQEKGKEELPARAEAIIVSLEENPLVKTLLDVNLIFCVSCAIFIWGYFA
# [7] = target: T1, Sodium/glucose cotransporter 2; assay: Inhibition of human SGLT2 expressed in CHO cells assessed as inhibition of [14C]-alpha-methyl-D-glucopyranoside transport after 60 mins by scintillation counting in presence of 100% plasma; assay type: cell-based
SMILES,IC50 [1] [nM],IC50 [2] [nM],other results
CC(C)n1c(CN2C(=O)CSc3ccc(C(F)(F)F)cc32)nnc1SCc1ccc(Cl)cc1,1200,2000,–
CCn1c(CN2C(=O)COc3ccc([N+](=O)[O-])cc32)nnc1SCc1ccc(Cl)cc1,2100,5610,–
CCn1c(CN2C(=O)COc3ccc(Cl)cc32)nnc1SCc1ccc(Cl)cc1,150,7340,–
CCn1c(CN2C(=O)COc3ccc(C)cc32)nnc1SCc1ccc(Cl)cc1,80,7130,–
CCn1c(CN2C(=O)COc3c(Cl)cccc32)nnc1SCc1ccc(Cl)cc1,150,7340,–
CCCn1c(CCc2ccc(Cl)cc2)nnc1CN1C(=O)COc2ccc(Cl)cc21,40,13600,–
CCCCn1c(CCc2ccc(Cl)cc2)nnc1CN1C(=O)COc2ccc(Cl)cc21,30,11800,–
O=C1COc2ccc(Cl)cc2N1Cc1nnc(CCc2ccc(Cl)cc2)n1CC1CC1,30,7280,–
O=C1COc2ccc(Cl)cc2N1Cc1nnc(CCc2ccc(Cl)cc2)n1C1CC1,1580,25000,–
O=C1COc2c(Cl)cc(Cl)cc2N1Cc1nnc(CCc2ccc(Cl)cc2)n1CCC(F)(F)F,–,–,remaining at 0.5 h [4]: 4%; remaining at 0.5 h [5]: 4%; IC50 [6]: 9200 nM
CCOc1ccc(Cc2cc([C@@H]3O[C@H](CO)[C@@H](O)[C@H](O)[C@H]3O)ccc2Cl)cc1 [DAPAGLIFLOZIN],–,–,IC50 [6]: 380 nM

# Further lines, with some results ahead:
IC50 [1] [nM],IC50 [2] [nM],SMILES,other results
370,4750,CCn1c(CN2C(=O)CSc3ccc(C(F)(F)F)cc32)nnc1SCc1ccc(Cl)cc1,–
1100,3750,O=C1CSc2ccc(C(F)(F)F)cc2N1Cc1nnc(SCc2ccc(Cl)cc2)n1C1CC1,–
2110,3470,O=C1CSc2ccc(C(F)(F)F)cc2N1Cc1nnc(SCc2ccc(Cl)cc2)n1-c1ccccc1,–
250,6640,CCn1c(CN2C(=O)COc3ccc(C(F)(F)F)cc32)nnc1SCc1ccc(Cl)cc1,–
90,5320,CCn1c(CN2C(=O)COc3ccc(Br)cc32)nnc1SCc1ccc(Cl)cc1,–
430,3290,CCn1c(CN2C(=O)COc3cc(Cl)ccc32)nnc1SCc1ccc(Cl)cc1,–
520,2530,CCn1c(CN2C(=O)COc3cc(Br)ccc32)nnc1SCc1ccc(Cl)cc1,–
640,46000,CCn1c(CCc2ccc(Cl)cc2)nnc1CN1C(=O)COc2ccc(C(F)(F)F)cc21,–
180,9880,CCCn1c(CCc2ccc(Cl)cc2)nnc1CN1C(=O)COc2ccc(C(F)(F)F)cc21,–
160,6900,CC(C)Cn1c(CCc2ccc(Cl)cc2)nnc1CN1C(=O)COc2ccc(Cl)cc21,–
70,13800,O=C1COc2ccc(Cl)cc2N1Cc1nnc(CCc2ccc(Cl)cc2)n1CCC(F)(F)F,–
9,9140,CCCn1c(CCc2ccc(Cl)cc2)nnc1CN1C(=O)COc2c(Cl)cc(Cl)cc21,IC50 [3]: 16 nM; remaining at 0.5 h [4]: 4%; remaining at 0.5 h [5]: 4%; IC50 [6]: 14400 nM; IC50 [7]: 40 nM
